Reference: PubChem BioAssay (NCI)
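A five-concentration, 48-hour dose response in 96-well plates underlies each endpoint, interpolated linearly between surrounding concentrations. Abbreviation: GI50, concentration required for 50% inhibition of growth. TGI: total growth inhibition.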

Legend:
Assay in all cases: inhibition of tumour cell growth, NCI panel, 48 h
[1] = test system: CCRF-CEM leukemia
[2] = test system: HCC-2998 colon
[3] = test system: HCT-15 colon
[4] = test system: HT29 colon
[5] = test system: IGROV1 ovarian
[6] = test system: K-562 leukemia
[7] = test system: LOX IMVI melanoma
[8] = test system: NCI-H226 lung
[9] = test system: SK-OV-3 ovarian
[10] = test system: SW-620 colon

Structure (SMILES) | GI50 [1] [µM] | TGI [1] [µM] | GI50 [2] [µM] | TGI [2] [µM] | GI50 [3] [µM] | TGI [3] [µM] | GI50 [4] [µM] | TGI [4] [µM] | GI50 [5] [µM] | TGI [5] [µM] | GI50 [6] [µM] | TGI [6] [µM] | GI50 [7] [µM] | TGI [7] [µM] | GI50 [8] [µM] | TGI [8] [µM] | GI50 [9] [µM] | TGI [9] [µM] | GI50 [10] [µM] | TGI [10] [µM]
CC/C=C\C[C@H](O)C/C=C1/C(=O)C=C[C@@H]1C/C=C\CCCC(=O)OC | 0.368 | 11.4 | 2.09 | 3.68 | 0.538 | 2.79 | 1.61 | 3.8 | 3.05 | 8.71 | 0.732 | 21.7 | 0.237 | 0.609 | 2.17 | 4.63 | 5.37 | 15.4 | 0.784 | 11.3
CCOC(=O)N[C@@H]1C(CC(=O)OC)O[C@H]2OC(C)(C)O[C@H]21 (stereo not given in full) | – | > 100 | – | > 100 | – | > 100 | – | > 100 | – | > 100 | – | > 100 | – | > 100 | – | > 100 | – | > 100 | – | > 100
Cc1ccc(NC(=O)c2cccc(C(C)(C)C#N)c2)cc1Nc1ccc2ncn(C)c(=O)c2c1 | 5.36 | > 100 | 0.0676 | > 100 | 3.11 | > 100 | 0.032 | > 100 | 1.49 | > 100 | 0.484 | > 79.3 | 0.0585 | > 67.5 | 5.62 | > 100 | > 100 | > 100 | 1.01 | > 100
Cc1cc2ncnn2cc1Nc1ncc2c(n1)n(C1CCOCC1)c(=O)n2C | 4.04 | > 100 | 6.56 | > 100 | 8.23 | > 100 | 6.64 | > 100 | 3.19 | 25.5 | 16 | > 100 | 5.92 | > 100 | 7.32 | > 100 | 2.15 | 15.2 | 18.1 | > 100
COc1ccc(-c2nc3ccccn3c2/C=C/C(=O)c2cc(OC)c(OC)c(OC)c2)cc1OC | 1.54 | > 100 | 3.79 | 15.1 | 3.73 | 35.1 | 3.2 | > 100 | 3.03 | 12.1 | 2.99 | > 100 | 2.26 | 6.62 | 6.1 | 40.6 | 4.92 | > 100 | 2.78 | 55.6
O=C(Nc1ccccc1-c1nc2ccccc2[nH]c1=O)c1ccccc1 | – | > 100 | – | 33.7 | – | > 100 | – | > 100 | – | 70.6 | – | > 100 | – | 61.9 | – | 60.1 | – | 40.5 | – | 73.7
COc1ccc2[nH]c3c4[nH]c5ccc(OC)cc5c4c4c(c3c2c1)C(=O)NC4=O | 0.757 | > 25 | > 25 | > 25 | > 14.3 | > 25 | > 25 | > 25 | > 25 | > 25 | > 6.63 | > 25 | > 13.1 | > 25 | > 25 | > 25 | > 25 | > 25 | > 25 | > 25
COc1ccc(/C=C/c2c(C(=O)/C=C/c3ccccc3)c(C)nc3ccccc23)cc1 | 2.33 | > 100 | 1.88 | 3.48 | 1.38 | 3.77 | 2.4 | > 100 | 1.57 | 5.36 | 2.33 | 7.19 | 1.69 | 3.08 | 1.81 | 4.02 | 3.13 | 9.54 | 2.12 | 6.34
Cc1cc(NS(=O)(=O)c2ccc(Nc3c4ccccc4nc4c(C(=O)N5CCN(CCO)CC5)cccc34)cc2)no1 | – | > 100 | – | > 100 | – | > 100 | – | > 100 | – | > 100 | – | > 100 | – | > 100 | – | > 100 | – | > 100 | – | > 100
CCCC(CCC)NCC(O)c1cc(-c2ccc(C(F)(F)F)cc2)nc(C(F)(F)F)c1 (stereo not given) | 2.46 | 5.7 | 1.68 | 3.1 | 1.77 | 3.53 | 1.83 | 3.32 | 2.09 | 4.09 | 1.93 | 3.8 | 1.53 | 2.97 | 1.59 | 3.08 | 1.75 | 3.22 | 1.57 | 3.05
